The compounds below were run against T1, CYP4A (Homo sapiens, UniProt Q02928) (assay: CYP4A enzyme assay (Luciferin-ME luminescence, CYP4A bactosome)). Details: compound concentration 5 μM; 25%-50%; read-out: % Inhibition 25%-50%.
T1 construct: host or cells: bactosome, i.e. bacterial membrane preparation (own knowledge of the term)
T1 sequence (Q02928 5-519): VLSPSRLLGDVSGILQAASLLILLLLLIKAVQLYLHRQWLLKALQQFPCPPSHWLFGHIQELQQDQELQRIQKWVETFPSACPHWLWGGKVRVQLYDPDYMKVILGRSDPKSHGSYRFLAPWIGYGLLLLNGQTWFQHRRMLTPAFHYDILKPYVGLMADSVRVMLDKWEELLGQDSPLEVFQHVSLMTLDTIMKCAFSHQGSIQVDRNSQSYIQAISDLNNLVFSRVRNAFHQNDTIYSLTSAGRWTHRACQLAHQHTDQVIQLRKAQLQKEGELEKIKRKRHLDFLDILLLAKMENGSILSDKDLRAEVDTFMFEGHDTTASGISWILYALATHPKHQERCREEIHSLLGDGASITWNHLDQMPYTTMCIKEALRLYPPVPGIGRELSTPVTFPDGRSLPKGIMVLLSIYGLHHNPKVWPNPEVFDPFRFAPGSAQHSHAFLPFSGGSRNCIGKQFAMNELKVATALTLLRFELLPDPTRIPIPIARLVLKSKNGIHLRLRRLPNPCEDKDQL
Assay type: biochemical
Procedure: A commercially available reagent was used for the reagent used in the experiment, and it was manufactured and used if necessary. The device used for activity measurement was EnVision of PerkinElmer or SpectraMax of MOLECULAR DEVICES.
First, CYP4A bactosome and synthetic compound (5 μM) were mixed in assay buffer (100 mM KPO4, 0.1% BSA, 1 mM DTT) in a 384-well plate (white opaque ploystyrene nontreated flat-bottom well), and then reacted at room temperature for 15 minutes. After adding 5 mM Luciferin-ME and NADPH Regeneration system (10× sol.A, 20× sol.B in assay buffer, Cat. Number: V865B, Promega), leave it at room temperature for 30 minutes to allow the CYP4A reaction to occur sufficiently, by adding the Luciferin Detection reagent, the CYP4A reaction was finished, luminescence reaction was induced, and the reaction was carried out at room temperature for 15 minutes. The degree of inhibition of CYP4A activity was measured by comparing the luminescence values from each well with a microplate reader.
Compound `COc1ccc2c(N3CCN(C(=O)C4CCCN(S(=O)(=O)c5ccc(C)cc5)C4)CC3)ccnc2c1` (centres unmarked) [Formula 88, (4-(7-methoxyquinolin-4-yl)piperazin-1-yl) (1-tosylpiperidin-3-yl) methanone] has an inhibition at 5 µM of 0%. `O=C(O)c1ccc(S(=O)(=O)N2CCCC(C(=O)N3CCN(c4ccnc5cc(Cl)ccc45)CC3)C2)cc1` (centres unmarked) [Formula 98, 4-((3-(1-(7-chloroquinolin-4-yl)piperazine-1-carbonyl)piperidin-1-yl)sulfonyl)benzoic acid] gave an inhibition at 5 µM of 25 to 50%. In the case of `O=C(C1CCCN(S(=O)(=O)c2cccc(F)c2)C1)N1CCN(c2cc(C(F)(F)F)nc3ccccc23)CC1` (centres unmarked) [Formula 72, (1-(3-fluorophenylsulfonyl)piperidin-3-yl) (4-(2-(trifluoromethyl)quinolin-4-yl)piperazin-1-yl) methanone], the inhibition at 5 µM is reported as 25 to 50%.

Same assay, conditions: compound concentration 5 μM; 75% or more; read-out: % Inhibition 75% or more
For `CCN(CC)c1ccc(S(=O)(=O)N2CCCC(C(=O)N3CCN(c4ccnc5cc(F)ccc45)CC3)C2)cc1` (centres unmarked) [Formula 52, (1-(4-(diethylamino)phenylsulfonyl)piperidin-3-yl) (4-(7-fluoroquinolin-4-yl)piperazin-1-yl) methanone], the inhibition at 5 µM was ≥ 75%. In the case of `O=C(C1CCCN(S(=O)(=O)c2ccc(C(F)(F)F)cc2)C1)N1CCN(c2ccnc3cc(Cl)ccc23)CC1` (centres unmarked) [Formula 7, (4-(7-chloroquinolin-4-yl)piperazin-1-yl) (1-((4-(trifluoromethyl)phenyl)sulfonyl)piperidin-3-yl) methanone], the inhibition at 5 µM is reported as ≥ 75%. In the case of `O=C(C1CCCN(S(=O)(=O)c2cccc(-c3ccncc3)c2)C1)N1CCN(c2ccnc3cc(F)ccc23)CC1` (centres unmarked) [Formula 109, (4-(7-fluoroquinolin-4-yl)piperazin-1-yl) (1-(3-(pyridin-4-yl)phenylsulfonyl)piperidin-3-yl) methanone], the inhibition at 5 µM is reported as ≥ 75%. With `CC(=O)Nc1ccc(S(=O)(=O)N2CCCC(C(=O)N3CCN(c4ccnc5ccccc45)CC3)C2)cc1` (centres unmarked) [Formula 78, N-(4-((3-(4-(quinolin-4-yl)piperazine-1-carbonyl)piperidin-1-yl)sulfonyl)phenyl) acetamide] the inhibition at 5 µM was ≥ 75%. In the case of `COc1ccc(S(=O)(=O)N2CCCC(C(=O)N3CCN(c4ccnc5cc(F)ccc45)CC3)C2)cc1` (centres unmarked) [Formula 53, (4-(7-fluoroquinolin-4-yl)piperazin-1-yl) (1-(4-methoxyphenylsulfonyl)piperidin-3-yl) methanone], the inhibition at 5 µM is reported as ≥ 75%. In the case of `CN(C)c1ccc(S(=O)(=O)N2CCC[C@H](C(=O)N3CCN(c4ccnc5cc(F)ccc45)CC3)C2)cc1`, the inhibition at 5 µM is reported as ≥ 75%. With `O=C(C1CCCN(S(=O)(=O)c2cccc(O)c2)C1)N1CCN(c2ccnc3cc(F)ccc23)CC1` (centres unmarked) [Formula 94, (4-(7-fluoroquinolin-4-yl)piperazin-1-yl) (1-(3-hydroxyphenylsulfonyl)piperidin-3-yl) methanone] the inhibition at 5 µM was ≥ 75%. With `O=C(C1CCCN(S(=O)(=O)c2ccc(-c3ccncc3)cc2)C1)N1CCN(c2ccnc3ccccc23)CC1` (centres unmarked) [Formula 113, (1-(4-(pyridin-4-yl)phenylsulfonyl)piperidin-3-yl) (4-(quinolin-4-yl)piperazin-1-yl) methanone] the inhibition at 5 µM was ≥ 75%. In the case of `O=C(C1CCCN(S(=O)(=O)c2cccc(-c3cccnc3)c2)C1)N1CCN(c2ccnc3cc(F)ccc23)CC1` (centres unmarked) [Formula 110, (4-(7-fluoroquinolin-4-yl)piperazin-1-yl) (1-(3-(pyridin-3-yl)phenylsulfonyl)piperidin-3-yl) methanone], the inhibition at 5 µM is reported as ≥ 75%. For `O=C(C1CCCN(S(=O)(=O)c2cccc(Br)c2)C1)N1CCN(c2ccnc3cc(F)ccc23)CC1` (centres unmarked) [Formula 62, (1-(3-bromophenylsulfonyl)piperidin-3-yl) (4-(7-fluoroquinolin-4-yl)piperazin-1-yl) methanone], the inhibition at 5 µM was ≥ 75%. For `CC(=O)Nc1ccc(S(=O)(=O)N2CCCC(C(=O)N3CCN(c4ccnc5cc(F)ccc45)CC3)C2)cc1` (centres unmarked) [Formula 45, N-(4-(3-(1-(7-fluoroquinolin-4-yl)piperazine-4-carbonyl)piperidin-1-ylsulfonyl)phenyl) acetamide], the inhibition at 5 µM was ≥ 75%. For `O=C(C1CCCN(S(=O)(=O)c2ccc([N+](=O)[O-])cc2)C1)N1CCN(c2ccnc3cc(Cl)ccc23)CC1` (centres unmarked) [Formula 117, (4-(7-chloroquinolin-4-yl)piperazin-1-yl) (1-(4-nitrophenylsulfonyl)piperidin-3-yl) methanone], the inhibition at 5 µM was ≥ 75%. `O=C(C1CCCN(S(=O)(=O)c2cccc(-c3cncnc3)c2)C1)N1CCN(c2ccnc3cc(F)ccc23)CC1` (centres unmarked) [Formula 112, (4-(7-fluoroquinolin-4-yl)piperazin-1-yl) (1-(3-(pyrimidin-5-yl)phenylsulfonyl)piperidin-3-yl) methanone] was tested, and the inhibition at 5 µM was ≥ 75%. In the case of `O=C(C1CCCN(S(=O)(=O)c2ccc([N+](=O)[O-])cc2)C1)N1CCN(c2ccnc3ccccc23)CC1` (centres unmarked) [Formula 81, (1-(4-nitrophenylsulfonyl)piperidin-3-yl) (4-(quinolin-4-yl)piperazin-1-yl) methanone], the inhibition at 5 µM is reported as ≥ 75%. With `O=C(C1CCCN(S(=O)(=O)c2cccc([N+](=O)[O-])c2)C1)N1CCN(c2ccnc3ccccc23)CC1` (centres unmarked) [Formula 82, (1-(3-nitrophenylsulfonyl)piperidin-3-yl) (4-(quinolin-4-yl)piperazin-1-yl) methanone] the inhibition at 5 µM was ≥ 75%. `COc1cccc(S(=O)(=O)N2CCCC(C(=O)N3CCN(c4ccnc5cc(F)ccc45)CC3)C2)c1` (centres unmarked) [Formula 58, (4-(7-fluoroquinolin-4-yl)piperazin-1-yl) (1-(3-methoxyphenylsulfonyl)piperidin-3-yl) methanone] was tested, and the inhibition at 5 µM was ≥ 75%. With `CN(C)c1cccc(S(=O)(=O)N2CCC[C@@H](C(=O)N3CCN(c4ccnc5cc(F)ccc45)CC3)C2)c1` [Formula 61, (R)-(1-(3-(dimethylamino)phenylsulfonyl)piperidin-3-yl) (4-(7-fluoroquinolin-4-yl)piperazin-1-yl) methanone] the inhibition at 5 µM was ≥ 75%.

Same assay, conditions: compound concentration 5 μM; '50%-75%'; read-out: % Inhibition 50%-75%
Work on `Cc1cc(N2CCN(C(=O)C3CCCN(S(=O)(=O)c4ccc(F)cc4)C3)CC2)c2ccccc2n1` (centres unmarked) [Formula 24, (1-((4-fluorophenyl)sulfonyl)piperidin-3-yl) (4-(2-methylquinolin-4-yl)piperazin-1-yl) methanone] yielded an inhibition at 5 µM of 50 to 75%. Work on `CN(C)C(=O)c1ccc(S(=O)(=O)N2CCCC(C(=O)N3CCN(c4ccnc5cc(Cl)ccc45)CC3)C2)cc1` (centres unmarked) [Formula 99, 4-(3-(1-(7-chloroquinolin-4-yl)piperazine-4-carbonyl)piperidin-1-ylsulfonyl)-N,N-dimethylbenzamide] yielded an inhibition at 5 µM of 50 to 75%. Work on `COc1ccc2c(N3CCN(C(=O)C4CCCN(S(=O)(=O)c5ccc(NC(C)=O)cc5)C4)CC3)ccnc2c1` (centres unmarked) [Formula 87, N-(4-(3-(1-(7-methoxyquinolin-4-yl)piperazine-4-carbonyl)piperidin-1-ylsulfonyl)phenyl) acetamide] yielded an inhibition at 5 µM of 0%. In the case of `COc1ccc2c(N3CCN(C(=O)C4CCCN(S(=O)(=O)c5ccc(F)cc5)C4)CC3)ccnc2c1` (centres unmarked) [Formula 89, (1-(4-fluorophenylsulfonyl)piperidin-3-yl) (4-(7-methoxyquinolin-4-yl)piperazin-1-yl) methanone], the inhibition at 5 µM is reported as 50 to 75%. `Cc1cc(N2CCN(C(=O)C3CCCN(S(=O)(=O)c4ccc(S(C)(=O)=O)cc4)C3)CC2)c2ccccc2n1` (centres unmarked) [Formula 36, (4-(2-methylquinolin-4-yl)piperazin-1-yl) (1-(4-(methylsulfonyl)phenylsulfonyl)piperidin-3-yl) methanone] gave an inhibition at 5 µM of 50 to 75%. `Nc1ccc(S(=O)(=O)N2CCCC(C(=O)N3CCN(c4ccnc5ccccc45)CC3)C2)cc1` (centres unmarked) [Formula 97, (1-(4-aminophenylsulfonyl)piperidin-3-yl) (4-(quinolin-4-yl)piperazin-1-yl) methanone] gave an inhibition at 5 µM of 0%. `O=C(C1CCCN(S(=O)(=O)c2ccccc2)C1)N1CCN(c2ccnc3cc(Cl)ccc23)CC1` (centres unmarked) [Formula 1, (4-(7-chloroquinolin-4-yl)piperazin-1-yl) (1-(phenylsulfonyl)piperidin-3-yl) methanone] gave an inhibition at 5 µM of 50 to 75%. `O=C(C1CCCN(S(=O)(=O)c2ccccc2)C1)N1CCN(c2ccnc3ccccc23)CC1` (centres unmarked) [Formula 74, (1-(phenylsulfonyl)piperidin-3-yl) (4-(quinolin-4-yl)piperazin-1-yl) methanone] was tested, and the inhibition at 5 µM was 50 to 75%.

Same assay, conditions: compound concentration 5 μM; mark in column '25% or less'; read-out: % Inhibition 25% or less
For `Cc1cc(N2CCN(C(=O)C3CCCN(S(=O)(=O)c4ccc(C(=O)O)cc4)C3)CC2)c2ccccc2n1` (centres unmarked) [Formula 100, 4-(3-(1-(2-methylquinolin-4-yl)piperazine-4-carbonyl)piperidin-1-ylsulfonyl)benzoic acid], the inhibition at 5 µM was ≤ 25%.
